Laboratory results published in publication PMC2654097, “Orally Available Selective Melanocortin-4 Receptor Antagonists Stimulate Food Intake and Reduce Cancer-Induced Cachexia in Mice” (PLoS ONE, 2009).
Read-outs that look alike come from different tables or passages of the source. Ends that are not written are not given here.

How the values were obtained:
[1] = tested on: animals implanted with a colorectal tumor; parameters: method as in PMID 15027849; details: subcutaneous administration; cited from earlier work
[2] = tested on: animals implanted with Lewis lung carcinoma; details: subcutaneous administration; cited from earlier work
MC-4 receptor [3] = molecular target: MC-4 receptor; parameters: method as in earlier work; details: binding; read-out: IC50 (binding) / affinity on the MC-4 receptor; cited from earlier work
[4] = Brain and plasma concentrations in vivo; details: 60 mg/kg p.o., CD-1 mice; for Brain AUC / Plasma AUC: 0-6 hr; for Brain/plasma ratio: calculated from AUC
Description: Twelve weeks old male CD-1 (Hilltop Lab Animals, PA, USA) mice were dosed by gavage with either SNT207707 or SNT207858 at 60 mg/kg (n = 9 per compound). At 1, 3, and 6 hrs post-dose, 3 mice from each compound group were euthanized with CO2. Blood was collected by cardiac puncture, plasma was isolated immediately and then kept on dry ice until analysis. Brains were removed, rinsed with saline solution and stored at −80°C until analysis. Levels of the compound were determined by HPLC followed by mass spectrometry (MS/MS). Areas under the curve (AUC) of plasma and brain levels were computed from measured levels at 1, 3 and 6 hrs post-dose. Brain/plasma ratios were then calculated based on the AUCs. To assess the integrity of the blood-brain-barrier all animals were co-dosed with 10 mg/kg Atenolol.

MC-3 = tested on: MC-3; parameters: method as in earlier work; details: MC-4 vs. MC-3; cited from earlier work
healthy mice = assay: Light phase food intake; assay type: in vivo, NMRI mice; details: for effect on food intake, single dose comparison / effect on food intake: 4 hrs; for effect on food intake, single dose comparison: p<0.01 vs vehicle; for amount of food taken relative to vehicle control group: p.o., four hour post-treatment observation period; for effect on food intake: single oral treatment by gavage, dose range; for effect on food intake / amount of food taken relative to vehicle treated controls: light phase; for amount of food taken relative to vehicle treated controls: single s.c. injection 20 mg/kg, 4 hrs observation, p<0.01
Description: Six weeks old female NMRI mice (RCC Ltd.; Füllinsdorf, CH) were randomly assigned to the various experimental groups and the vehicle controls. They were housed in groups of 3 mice per cage. After at least one week of acclimatization in the experimental room, each animal's weight was determined and compound or vehicle was administered at appropriate concentrations 5 hrs after lights on. Then, food consumption of each cage group was recorded by weighing of the food hopper over a period of 4 hrs. Food intake was then determined as the difference in food hopper weight at the beginning and end of the 4 hrs following administration of the compound or the vehicle. Since the amount of food taken over 4 hrs by single animals was close to the limit of detection, we decided to rely on mean food amounts taken per cage (i.e., per 3 mice), whereby each treatment group consisted of n = 6 cages. The measured values from each cage were normalized to 100 g body weight (BW). Previous experiments indicated an excellent correlation between food intake and reduction of food weight.

MC-5 = tested on: MC-5; parameters: method as in earlier work; details: MC-4 vs. MC-5; cited from earlier work
C26 tumor bearing mice = assay: C26 adenocarcinoma-induced cachexia model; assay type: in vivo, BALB/c mice; details: for tumor induced weight loss: 30 mg/kg p.o. once daily starting the day after tumor implantation; for body composition (lean body mass and fat mass) / tumor weight / mice that did not show cachexia (loss of more than 5% of body weight): 30 mg/kg p.o. once daily; for body composition (lean body mass and fat mass): day 0 vs day 15, MRI relaxometry; for tumor weight: end of experiment, mean±SEM, not different from Vehicle+Tumor controls; for mice that did not show cachexia (loss of more than 5% of body weight): n = 9, Vehicle+Tumor controls 2 of 9 and 3 of 9
Description: Six week old male BALB/c mice (Harlan, The Netherlands) were used. The animals were single housed, and after a one week adaption period randomly assigned to the experimental or control groups. For the tumor implantation the mice were anaesthetized with 200 µl of ketamine/xylazine. Approximately 1×10^6 C26 cells suspended in phosphate buffered saline were then implanted unilaterally in the flank of the mice by subcutaneous injection. The non-tumor controls underwent the same procedure but received PBS injection only (n = 9 per group). Starting on the first day after tumor implantation, compounds or vehicle were administered orally in 5 ml/kg 1–2 hrs before the onset of the dark phase. Food intake and body weight were recorded daily. Lean and fat mass of each animal were determined by MRI relaxometry (EchoMRI-500, Echo Medical Systems, Houston, TX, USA) prior to tumor inoculation (day 0) and at the end of the experiment after removal of the tumor (typically day 15).

MC-4 receptor [5] = molecular target: MC-4 receptor; parameters: method as in earlier work; details: function; cited from earlier work
[6] = tested on: models of cancer-induced anorexia; parameters: method as in PMID 17584133, PMID 15800806; details: central administration; cited from earlier work

Row | Compound | IC50 (MC-4 receptor [3]) [nM] | Brain AUC [4] [µM·h] | Plasma AUC [4] [µM·h] | Brain/plasma ratio [4] | Plasma peak ([4]; levels at 1, 3, 6 hrs) [nM] | selectivity vs. MC-3 (MC-3) | effect on food intake, single dose comparison (healthy mice; p.o. 120 mg/kg) | amount of food taken relative to vehicle control group (healthy mice) | effect on food intake (healthy mice) | amount of food taken relative to vehicle treated controls (healthy mice) | selectivity vs. MC-5 (MC-5) | tumor induced weight loss (C26 tumor bearing mice) | body composition (lean body mass and fat mass) (C26 tumor bearing mice) | tumor weight (C26 tumor bearing mice) [g] | mice that did not show cachexia (loss of more than 5% of body weight) (C26 tumor bearing mice) | IC50 (MC-4 receptor [5]) [nM] | food intake [6] | also measured
1 | COc1ccc(Br)cc1CCc1c(F)cccc1C1=NCCN1 [ML00253764, 2-[2-[2-(5-bromo-2-methoxyphenyl)-ethyl]-3-fluorophenyl]-4,5-dihydro-1H-imidazole] | – | – | – | – | – | – | – | – | – | – | – | – | – | – | – | – | – | cachexia [1]: efficacious in reducing cachexia; cachexia [2]: efficacious in reducing cachexia
2 | CC(C)CCN(CCC(C)C)C(=O)c1ccc2nc(-c3ccc(C#N)cc3)c(CCCN3CCCC3)n2c1.Cl [SNT207707] | 8 | 2.307 | 6.373 | 0.36 | 1960 | more than 200 fold | statistically significant increases in food intake | roughly up to four times | dose-dependently increased the food intake | roughly 3 fold | more than 200 fold | significantly reduced the tumor induced weight loss | loss of lean body mass and loss of fat mass was reduced | 1.03 ± 0.07 | 8 out of 9 | 5 | – | Brain peak ([4]; levels at 1, 3, 6 hrs): ~580 nM
3 | CC[C@H](COc1cccnc1C1CCN(C(=O)[C@@H](Cc2ccc(Cl)cc2Cl)NC(=O)N2CCCC2)CC1)N1CCCC1 [SNT207858] | 22 | 0.437 | 4.405 | 0.10 | 1520 | 170 fold | statistically significant increases in food intake | roughly up to four times | dose-dependently increased the food intake | roughly 3 fold | 40 fold | significantly reduced the tumor induced weight loss | loss of lean body mass and loss of fat mass was reduced | 1.11 ± 0.09 | 6 out of 9 | 11 | – | effect on food intake, single dose comparison (healthy mice; p.o. 60 mg/kg): statistically significant increases in food intake
4 | AgRP: agouti-related protein, the endogenous inverse agonist at the MC-4 receptor (SSRRCVRLHESCLGQQVPCCDPCATCYCRFFNAFCYCRKLGTAMNPCSRT; ends and bridges not checked; cysteine pairing not given here; UniProt O00253 83-132, looked up) | – | – | – | – | – | – | – | – | – | – | – | – | – | – | – | – | increased food intake | –
5 | SHU-9119 [reference compound] | – | – | – | – | – | – | – | – | – | – | – | – | – | – | – | – | increased food intake | –
